Patent publication US20180246121A1, “IMMUNOLOGICAL TEST METHOD AND IMMUNOLOGICAL TEST KIT” (Fuso Parmaceutical Industries, Ltd., priority 2015, published 2018)

Legend:
HMGB1 [1] = assay: Sandwich ELISA, immobilized HMa166 and HRP-labeled CP11-1: HMGB1 measurement in the presence of an HMGB2 absorbent; type: binding, human; settings: 12.5 ng/mL HMGB1, HMGB2 peptide 0 to 1.0 mg/mL
Procedure: Then, the effects of each anti-HMGB2 antibody were observed.
By means of an ELISA system using immobilized anti-HMGB1 antibody MHa166 and an HRP-labeled anti-HMGB1 antibody CP11-1, it was examined whether nonspecific reactions by HMGB2 will be decreased when the reaction is achieved by 1,820 ng/mL HMGB2 in the presence of the HMGB2 peptide at 0 to 1.0 mg/mL (FIGS. 8B and 9B). In addition, effects of the coexisting HMGB2 peptide on HMGB1 measurements were similarly examined using 12.5 ng/mL HMGB1 (FIGS. 8A and 9A).

HMGB2 [2] = biological target: T1, HMGB2 (Homo sapiens, UniProt P26583); assay: Competitive sandwich ELISA, immobilized anti-HMGB1 antibody HMa166 and HRP-labeled anti-HMGB1 antibody CP11-1: nonspecific reaction to HMGB2; type: binding; settings: 1,820 ng/mL HMGB2; HMGB2 peptide 0 to 1.0 mg/mL; labeled CP11-1
T1 sequence (P26583 1-209): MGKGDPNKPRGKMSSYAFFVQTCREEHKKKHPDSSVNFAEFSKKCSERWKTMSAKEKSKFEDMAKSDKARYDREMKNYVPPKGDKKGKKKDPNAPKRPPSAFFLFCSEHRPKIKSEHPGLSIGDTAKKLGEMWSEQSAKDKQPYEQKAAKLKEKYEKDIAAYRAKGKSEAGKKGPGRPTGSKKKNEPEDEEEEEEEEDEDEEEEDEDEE
Procedure: A 100 μL portion of 10 μg/mL anti-HMGB1 antibody HMa166 was added to a 96-well ELISA plate (Maxsorp, Nunc). Then, immobilization was carried out according to a standard method, and blocking was performed by dispensing 200 μL of ImmunoBlock (DS Pharma Biomedical) diluted five-fold in purified water. After washing with TBSt (10 mM Tris pH 7.4, 150 mM NaCl, 0.05% Tween-20), HMGB2 was added at 1,400 ng/mL, the mixture was allowed to react at room temperature for two hours followed by washing with TBSt, and an HRP-labeled anti-HMGB1 antibody CP11-1 was added. Then, after washing, chromogenic substrate TMBZ (KPL) was added according to a standard method. The reaction was stopped using phosphoric acid, and the absorbance at 450 nm was measured using a microplate reader. Furthermore, as a competitive agent, commercially available anti-HMGB2 antibodies shown in Table 1 were added to the reaction system at 10 μg/mL, and impairment of the reaction due to anti-HMGB2 antibodies was observed.
Furthermore, 0 to 1,300 μg/mL HMGB2 was measured by sandwich ELISA using the MHa166 antibody and the CP11-1 antibody, which were obtained by immunization with HMGB1, to observe how much HMGB2 reacts in ELISA using the MHa166 antibody and the CP11-1 antibody. […]

HMGB1 [3] = assay: ELISA, immobilized MHa166 and HRP-labeled monoclonal antibody HMa176: HMGB1 measurement; type: binding, human; settings: 50 ng/mL HMGB1, peptide 0.5 mg/mL
Procedure: Similar examinations were carried out for systems using another monoclonal antibody. It was examined how the reactions achieved by 50 ng/mL HMGB1 change when MHa176 antibody, which was obtained by immunization with HMGB1, were HRP-labeled and an HMGB2 peptide was allowed to coexist at a concentration of 0.5 mg/mL in an ELISA system with the immobilized anti-HMGB1 antibody MHa166 (FIG. 12A). Furthermore, effects of the coexisting HMGB2 peptide on HMGB2 measurements were similarly examined using 1,820 ng/mL HMGB2 (FIG. 12B).

HMGB1 [4] = assay: ELISA, immobilized HMa166 and HRP-labeled HMGB1 polyclonal antibody No. 14: HMGB1 measurement; type: binding, human; settings: 50 ng/mL HMGB1; peptide 0.5 mg/mL; labeled polyclonal antibody No. 14
Procedure: (§1) Anti-HMGB1 antibody HMa166 at 10 μg/mL was immobilized onto a 96-well ELISA plate (Maxsorp, Nunc), and blocking was performed by dispensing 200 μL of ImmunoBlock (DS Pharma Biomedical) diluted five-fold in purified water. After washing with TBSt (10 mM Tris pH 7.4, 150 mM NaCl, 0.05% Tween-20), HMGB1 was added at 50 ng/mL or HMGB2 was added at 1,820 ng/mL, […] The mixture was allowed to react at 37° C. for two hours followed by washing with TBSt. After adding HMGB1 polyclonal antibody No. 12 or No. 14 obtained by immunizing rabbits with a synthetic human HMGB1 peptide or a recombinant human HMGB1, each of which had been labeled with HRP, the mixture was reacted at room temperature for one hour. After the reaction, the plate was washed with TBSt, and chromogenic substrate TMBZ (KPL) was added according to a standard method, the reaction was stopped with phosphoric acid, and the absorbances at 450 nm were measured using a microplate reader, […]
(§2) Next, whether similar effects can be obtained with antibodies other than CP11-1 was examined. […]

HMGB1 [5] = assay: ELISA, immobilized HMa166 and HRP-labeled HMGB1 polyclonal antibody No. 12: HMGB1 measurement; type: binding, human; settings: 50 ng/mL HMGB1; peptide 0.5 mg/mL; labeled polyclonal antibody No. 12
Procedure: as §1, §2

HMGB2 [6] = biological target: T1, HMGB2; assay: ELISA, immobilized HMa166 and HRP-labeled HMGB1 polyclonal antibody No. 12: nonspecific reaction to HMGB2; type: binding; settings: 1,820 ng/mL HMGB2; peptide 0.5 mg/mL; labeled polyclonal antibody No. 12
HMGB2 [7] = biological target: T1, HMGB2; assay: ELISA, immobilized HMa166 and HRP-labeled HMGB1 polyclonal antibody No. 14: nonspecific reaction to HMGB2; type: binding; settings: 1,820 ng/mL HMGB2; peptide 0.5 mg/mL; labeled polyclonal antibody No. 14
Procedure: Furthermore, whether commercially available anti-HMGB2 antibodies can suppress nonspecific reactions to HMGB2 even when the labelled antibody is changed was examined. Anti-HMGB1 antibody HMa166 at 10 μg/mL was immobilized onto a 96-well ELISA plate (Maxsorp, Nunc), and blocking was performed by dispensing 200 μL of ImmunoBlock (DS Pharma Biomedical) diluted five-fold in purified water. After washing with TBSt (10 mM Tris pH 7.4, 150 mM NaCl, 0.05% Tween-20), HMGB1 was added at 50 ng/mL or HMGB2 was added at 1,820 ng/mL, […] The mixture was allowed to react at 37° C. for two hours followed by washing with TBSt. After adding HMGB1 polyclonal antibody No. 12 or No. 14 obtained by immunizing rabbits with a synthetic human HMGB1 peptide or a recombinant human HMGB1, each of which had been labeled with HRP, the mixture was reacted at room temperature for one hour. After the reaction, the plate was washed with TBSt, and chromogenic substrate TMBZ (KPL) was added according to a standard method, the reaction was stopped with phosphoric acid, and the absorbances at 450 nm were measured using a microplate reader, to observe impairment of the reaction due to the anti-HMGB2 antibody.
as §2

Row | effect of HMGB2 peptide on HMGB2 measurements (HMGB2 [6]) | neutralizing effects on HMGB2 (HMGB2 [7]) | Sequence | effect of HMGB2 peptide on measured values of HMGB1 (HMGB1 [1]) | effect of HMGB2 peptide on measured values of HMGB1 (HMGB1 [1]; listed as HM2-2 peptide) | absorption of nonspecific reaction to HMGB2 by HMGB2 peptide (HMGB2 [2]) | effect of HMGB2 peptide on reactivity of HMGB1 (HMGB1 [3]) | effect of HMGB2 peptide on HMGB1 measurements (HMGB1 [4]) | enhancement of the reaction with HMGB1 (HMGB1 [5]) | effect of HMGB2 peptide on HMGB1 measurements (HMGB1 [5])
1 | attenuated | not observed | CREEHKKKHPDSSVNFAEFS [HM2-2, HMGB2-derived peptide, 23rd to 42nd amino acids of full-length human HMGB2] | concentration-dependent reaction enhancement | concentration-dependent enhancement of the reaction | absorbed nonspecific reactions to HMGB2 in a concentration-dependent manner | enhancement of reactivity of HMGB1 | increased the reactivity of HMGB1 | approximately 1.6 fold | –
2 | did not affect | not observed | MGKGDPNKPRGKMSSYA [HM2-1, HMGB2-derived peptide, 1st to 17th amino acids of full-length human HMGB2] | hardly affected | – | able to absorb nonspecific reaction to HMGB2 in a concentration-dependent manner | – | did not have any influence | – | did not affect
